Measured values from patent publication US8026258B2, “Aryloxyalkylcarbamate-type derivatives, preparation method thereof and use of same in therapeutics” (Sanofi-Aventis, priority 2004, dated 2011).

What was measured:
[1] = target: T1, FAAH (Fatty Acid Amide Hydrolase) (Mus musculus, UniProt O08914); assay: Radioenzymatic FAAH inhibition assay (hydrolysis of anandamide [ethanolamine 1-3H]) in mouse brain membrane homogenates; format: biochemical; settings: mouse brain membrane homogenate; anandamide 10 μM; 15 minutes at 25° C.; read-out: IC50 (concentration inhibiting by 50% the control enzyme activity of FAAH)
T1 construct: Membrane homogenates are prepared at the time of use by homogenizing the tissues in a Polytron; from tissue; host or cells: mouse brain (minus the cerebellum), membrane homogenate
T1 sequence (O08914 1-579): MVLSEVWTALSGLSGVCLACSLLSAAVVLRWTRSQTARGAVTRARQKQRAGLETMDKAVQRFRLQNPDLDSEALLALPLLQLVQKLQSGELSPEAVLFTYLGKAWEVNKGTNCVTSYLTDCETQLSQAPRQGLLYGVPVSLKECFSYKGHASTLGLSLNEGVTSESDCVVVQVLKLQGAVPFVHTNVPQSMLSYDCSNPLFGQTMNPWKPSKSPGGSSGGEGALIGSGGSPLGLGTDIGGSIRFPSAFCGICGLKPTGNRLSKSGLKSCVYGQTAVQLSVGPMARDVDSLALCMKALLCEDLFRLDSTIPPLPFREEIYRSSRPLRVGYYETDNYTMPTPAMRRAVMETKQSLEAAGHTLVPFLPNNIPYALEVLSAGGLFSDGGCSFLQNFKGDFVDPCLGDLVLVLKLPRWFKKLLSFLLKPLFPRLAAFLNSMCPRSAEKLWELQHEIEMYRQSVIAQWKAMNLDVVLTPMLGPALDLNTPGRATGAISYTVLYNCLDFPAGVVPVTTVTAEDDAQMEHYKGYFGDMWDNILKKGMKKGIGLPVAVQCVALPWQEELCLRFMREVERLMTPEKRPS
Method: The compounds of the invention were subjected to pharmacological tests permitting determination of their inhibitory effect on the enzyme FAAH (Fatty Acid Amide Hydrolase).
Accordingly, mouse brains (minus the cerebellum) are removed and stored at −80° C. Membrane homogenates are prepared at the time of use by homogenizing the tissues in a Polytron in a 10 mM Tris-HCl buffer (pH 8.0) containing 150 mM NaCl and 1 mM EDTA. The enzyme reaction is subsequently conducted in 70 μl of buffer containing bovine serum albumin without fatty acids (1 mg/ml). In succession, the test compounds, at various concentrations, anandamide [ethanolamine 1-^3H] (specific activity: 15-20 Ci/mmol) diluted to 10 μM with cold anandamide, and the membrane preparation (400 μg of frozen tissue per assay) are added. After 15 minutes at 25° C. the enzyme reaction is terminated by adding 140 μl of chloroform/methanol (2:1). The mixture is stirred for 10 minutes and then centrifuged for 15 minutes at 3500 g. An aliquot (30 μl) of the aqueous phase containing the ethanolamine [1-^3H] is counted by liquid scintillation.

male OF1 mice = assay: Analgesia test: PBQ (phenylbenzoquinone)-induced abdominal stretches; format: in vivo, mouse; settings: oral, dose of 1 mg/kg, at 2 hours, PBQ 2 mg/kg i.p.
Method: The in vivo activity of the compounds of the invention was evaluated in an analgesia test.
Accordingly, intraperitoneal (i.p.) administration of PBQ (phenylbenzoquinone, 2 mg/kg in a 0.9% sodium chloride solution containing 5% of ethanol) to male OF1 mice weighing 25 to 30 g causes abdominal stretches, on average 30 twists or contractions during the period from 5 to 15 minutes after injection. The test compounds are administered orally in suspension in Tween 80 at 0.5%, 60 minutes or 120 minutes before the administration of PBQ. […] For example, compound 58 of the table reduces by 51% the number of stretches induced by PBQ, at a dose of 1 mg/kg at 2 hours.

## NC(=O)COC(=O)N1CCC(CCOc2ccc3ccncc3c2)CC1 [Compound 183, 2-amino-2-oxoethyl 4-[2-(7-isoquinolinyloxy)ethyl]-1-piperidinecarbamate]
other
  melting point: 179 to 181 °C

## CNC(=O)COC(=O)N1CCC(CCOc2ccc(Br)cc2)CC1 [Compound 168, 2-(methylamino)-2-oxoethyl 4-{2-[(4-bromophenyl)-oxy]ethyl}-1-piperidinecarboxylate]
other
  melting point: 101 to 103 °C

## NC(=O)COC(=O)N1CCC(COc2cccc3ccccc23)C1 (centres unmarked) [Compound 83, 2-amino-2-oxoethyl 3-[(1-naphthalenyloxy)methyl]-1-pyrrolidinecarboxylate]
other
  melting point: 161 to 163 °C

## N#Cc1ccc(OCCNC(=O)OCC(N)=O)cc1 [Compound 11, 2-amino-2-oxoethyl (2-[(4-cyanophenyl)oxy]ethyl)-carbamate]
other
  melting point: 204 to 206 °C

## CNC(=O)COC(=O)N1CCC(Oc2ccc(-c3ccc(F)cc3)cc2)CC1 [Compound 85, 2-(methylamino)-2-oxoethyl 4-[(4′-fluoro-4-biphenyl)-oxy]-1-piperidinecarboxylate]
other
  melting point: 117 to 119 °C

## NC(=O)COC(=O)N1CCC(COc2ccc3cccnc3c2)CC1 [Compound 148, 2-amino-2-oxoethyl 4-[(7-quinolinyloxy)methyl]-1-piperidinecarboxylate]
other
  melting point: 137 to 139 °C

## CNC(=O)COC(=O)NCCOc1ccc(Cl)cc1 [Compound 1, 2-(methylamino)-2-oxoethyl{2-[(4-chlorophenyl)-oxy]ethyl}carbamate]
other
  melting point: 147 to 149 °C

## NC(=O)COC(=O)N1CCC(COc2cccc3ccccc23)CC1 [Compound 137, 2-amino-2-oxoethyl 4-[(1-naphthalenyloxy)methyl]-1-piperidinecarboxylate]
other
  melting point: 135 to 136 °C

## CNC(=O)COC(=O)N1CCC(COc2ccc(Br)cc2)CC1 [Compound 120, 2-(methylamino)-2-oxoethyl 4-{[(4-bromophenyl)oxy]-methyl}-1-piperidinecarboxylate]
other
  melting point: 163 to 165 °C

## CNC(=O)COC(=O)N1CCC(CCOc2ccc(-c3ccc(Cl)cc3)cc2)CC1 [Compound 186, 2-(methylamino)-2-oxoethyl 4-{2-[(4′-chloro-4-biphenyl)oxy]ethyl}-1-piperidinecarboxylate]
other
  melting point: 104 to 106 °C

## NC(=O)COC(=O)NCCCCOc1cccc2ccccc12 [Compound 58, 2-amino-2-oxoethyl [4-(1-naphthalenyloxy]butyl]-carbamate]
[1]
  IC50: 470 nM
Male OF1 mice
  reduction of the number of stretches induced by PBQ: 51%
other
  melting point: 80 to 82 °C

## CNC(=O)COC(=O)N1CCC(COc2ccc(-c3ccc(C(F)(F)F)cc3)cc2)CC1 [Compound 154, 2-(methylamino)-2-oxoethyl 4-{[(4′-(trifluoromethyl)-4-biphenyl)oxy]methyl}-1-piperidinecarboxylate]
other
  melting point: 197 to 199 °C
